The text below walks through data of paper PMC2934701 (The Journal of Biological Chemistry, 2010).

Test in all cases: Fluo-4 calcium assay, HEK293T + Galpha16gust44
What all share (type): cell-based

Test [1] deals with T1, hTAS2R16 (ssr3-hTAS2R16) (Homo sapiens, UniProt Q9NYV7, W94Y).
T1 sequence (Q9NYV7 1-291 W94Y): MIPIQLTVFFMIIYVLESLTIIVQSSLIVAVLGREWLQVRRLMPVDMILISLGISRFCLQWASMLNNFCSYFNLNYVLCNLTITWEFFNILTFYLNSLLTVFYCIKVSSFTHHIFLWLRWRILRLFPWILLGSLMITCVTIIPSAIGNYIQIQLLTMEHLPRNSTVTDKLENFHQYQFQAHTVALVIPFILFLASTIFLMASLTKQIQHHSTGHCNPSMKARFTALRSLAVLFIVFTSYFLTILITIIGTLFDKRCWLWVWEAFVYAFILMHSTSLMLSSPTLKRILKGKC

Test [2] deals with T2, hTAS2R16 (ssr3-hTAS2R16) (Homo sapiens, UniProt Q9NYV7, I243L).
T2 sequence (Q9NYV7 1-291 I243L): T1 sequence (Q9NYV7 1-291 W94Y) with Y94W, I243L

In test [3] the target is T3, hTAS2R16 (ssr3-hTAS2R16) (Homo sapiens, UniProt Q9NYV7, W94F).
T3 sequence (Q9NYV7 1-291 W94F): T1 sequence (Q9NYV7 1-291 W94Y) with Y94F

Test [4] addresses T4, hTAS2R16 (ssr3-hTAS2R16) (Homo sapiens, UniProt Q9NYV7, I243A).
T4 sequence (Q9NYV7 1-291 I243A): T1 sequence (Q9NYV7 1-291 W94Y) with Y94W, I243A

The target of test [5] is T5, hTAS2R16 (ssr3-hTAS2R16) (Homo sapiens, UniProt Q9NYV7, I243V).
T5 sequence (Q9NYV7 1-291 I243V): T1 sequence (Q9NYV7 1-291 W94Y) with Y94W, I243V

Test [6] addresses T6, hTAS2R16 (ssr3-hTAS2R16) (Homo sapiens, UniProt Q9NYV7, F240Y).
T6 sequence (Q9NYV7 1-291 F240Y): T1 sequence (Q9NYV7 1-291 W94Y) with Y94W, F240Y

Test [7] has as its target T7, hTAS2R16 (ssr3-hTAS2R16) (Homo sapiens, UniProt Q9NYV7, F93T).
T7 sequence (Q9NYV7 1-291 F93T): T1 sequence (Q9NYV7 1-291 W94Y) with F93T, Y94W

Test [8] addresses T8, hTAS2R16 (ssr3-hTAS2R16) (Homo sapiens, UniProt Q9NYV7, H181L).
T8 sequence (Q9NYV7 1-291 H181L): T1 sequence (Q9NYV7 1-291 W94Y) with Y94W, H181L

Where a chain is given by its changes, count along the chain named. Bounds are passed on as bounds.

Turning to `OCc1ccccc1O[C@@H]1O[C@H](CO)[C@@H](O)[C@H](O)[C@H]1O` [salicin], the EC50 (usually the midpoint of the concentration-response curve) is 1360 µM on hTAS2R16 (ssr3-hTAS2R16) [1]; 500 µM at hTAS2R16 (ssr3-hTAS2R16) [2]; 9680 µM at hTAS2R16 (ssr3-hTAS2R16) [3]; more than 30000 µM at hTAS2R16 (ssr3-hTAS2R16) [4]; 840 µM at hTAS2R16 (ssr3-hTAS2R16) [5]; 2440 µM on hTAS2R16 (ssr3-hTAS2R16) [6]. Further, the results for the EC50 at hTAS2R16 (ssr3-hTAS2R16) [7] and on hTAS2R16 (ssr3-hTAS2R16) [8] were 12000 µM and 12900 µM, respectively.
